# Measured values from US20080280920A1, “Plasminogen Activator Inhibitor-1 Inhibitors” (priority 2005, published 2008).
# Experiments:
# [1] = system: SF-268; assay: NCI anticancer screen, SF-268; assay type: cell-based, human; conditions: Homo sapiens; SF-268, CNS, 48 h
# [2] = system: CAKI-1; assay: NCI anticancer screen, CAKI-1; assay type: cell-based, human; conditions: Homo sapiens; CAKI-1, Renal, 48 h
# [3] = system: UO-31; assay: NCI anticancer screen, UO-31; assay type: cell-based, human; conditions: Homo sapiens; UO-31, Renal, 48 h
# [4] = system: IGR-OV1; assay: NCI anticancer screen, IGR-OV1; assay type: cell-based, human; conditions: Homo sapiens, IGROV-1; IGR-OV1, Ovarian, 48 h
# [5] = system: HOP-92; assay: NCI anticancer screen, HOP-92; assay type: cell-based, human; conditions: Homo sapiens; HOP-92, Non-Small Cell Lung, 48 h
# [6] = system: UACC-62; assay: NCI anticancer screen, UACC-62; assay type: cell-based, human; conditions: Homo sapiens; UACC-62, Melanoma, 48 h
# [7] = system: HL-60(TB); assay: NCI anticancer screen, HL-60(TB); assay type: cell-based, human; conditions: Homo sapiens, Leukemia, 48 h
# [8] = system: HCC-2998; assay: NCI anticancer screen, HCC-2998; assay type: cell-based, human; conditions: Homo sapiens; HCC-2998, Colon, 48 h
# [9] = system: TK-10; assay: NCI anticancer screen, TK-10; assay type: cell-based, human; conditions: Homo sapiens; TK-10, Renal, 48 h
# [10] = system: OVCAR-4; assay: NCI anticancer screen, OVCAR-4; assay type: cell-based, human; conditions: Homo sapiens; OVCAR-4, Ovarian, 48 h
# [11] = system: PC-3; assay: NCI anticancer screen, PC-3; assay type: cell-based, human; conditions: Homo sapiens; PC-3, Prostate, 48 h
# [12] = system: MOLT-4; assay: NCI anticancer screen, MOLT-4; assay type: cell-based, human; conditions: Homo sapiens; MOLT-4, Leukemia, 48 h
# [13] = system: U251; assay: NCI anticancer screen, U251; assay type: cell-based, human; conditions: Homo sapiens, U-251; U251, CNS, 48 h
# [14] = system: BT-549; assay: NCI anticancer screen, BT-549; assay type: cell-based, human; conditions: Homo sapiens; BT-549, Breast, 48 h
# [15] = system: UACC-257; assay: NCI anticancer screen, UACC-257; assay type: cell-based, human; conditions: Homo sapiens; UACC-257, Melanoma, 48 h
# [16] = system: SK-OV-3; assay: NCI anticancer screen, SK-OV-3; assay type: cell-based, human; conditions: Homo sapiens; SK-OV-3, Ovarian, 48 h
# [17] = system: SK-MEL-5; assay: NCI anticancer screen, SK-MEL-5; assay type: cell-based, human; conditions: Homo sapiens; SK-MEL-5, Melanoma, 48 h
# [18] = system: SF-539; assay: NCI anticancer screen, SF-539; assay type: cell-based, human; conditions: Homo sapiens; SF-539, CNS, 48 h
# [19] = system: MCF7; assay: NCI anticancer screen, MCF7; assay type: cell-based, human; conditions: Homo sapiens; MCF7, Breast, 48 h
# [20] = system: HS 578T; assay: NCI anticancer screen, HS 578T; assay type: cell-based, human; conditions: Homo sapiens, Breast, 48 h
# [21] = system: SW-620; assay: NCI anticancer screen, SW-620; assay type: cell-based, human; conditions: Homo sapiens; SW-620, Colon, 48 h
# [22] = system: EKVX; assay: NCI anticancer screen, EKVX; assay type: cell-based, human; conditions: Homo sapiens, Non-Small Cell Lung, 48 h
# [23] = molecular target: T1, wildtype human PAI-1 (Homo sapiens, UniProt P05121); assay: PAI-1/uPA assay (residual uPA activity, fluorescent substrate SpectroFluor); assay type: biochemical
# T1 construct: purchased Molecular Innovations Lot# HWT-804
# T1 sequence (P05121 24-402): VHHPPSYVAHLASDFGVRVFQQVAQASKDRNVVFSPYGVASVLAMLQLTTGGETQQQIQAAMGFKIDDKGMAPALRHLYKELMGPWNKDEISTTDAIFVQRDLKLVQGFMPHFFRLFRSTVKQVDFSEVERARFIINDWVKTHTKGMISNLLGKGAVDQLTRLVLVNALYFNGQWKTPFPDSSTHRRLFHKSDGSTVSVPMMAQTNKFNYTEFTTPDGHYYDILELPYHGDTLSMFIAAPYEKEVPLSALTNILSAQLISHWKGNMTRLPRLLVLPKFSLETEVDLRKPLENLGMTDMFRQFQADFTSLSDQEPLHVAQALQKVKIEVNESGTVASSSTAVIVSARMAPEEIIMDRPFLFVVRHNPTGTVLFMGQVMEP
# Method in brief: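 Wildtype human PAI-1 (6 nM) preincubated 15-20 min at RT with compound (10 nM to 100 μM final) in HEPES buffer pH 6.6, then with uPA (8 nM, HMW) 5 min. SpectroFluor (0.1 mM) cleavage followed 30 min at 37 °C (ex 360/em 440 nm); PAI-1 activity expressed as % of untreated PAI-1.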
SMILES,GI50 [1],GI50 [2],GI50 [3],GI50 [4],GI50 [5],GI50 [6],GI50 [7],GI50 [8],GI50 [9],GI50 [10],GI50 [11],GI50 [12],GI50 [13],GI50 [14],GI50 [15],GI50 [16],GI50 [17],GI50 [18],GI50 [19],GI50 [20],other results
"CC(C)(C)OC(=O)Nc1ccc(O)c(C(=O)NCCOC(=O)NCCNC(=O)c2cc(OCc3ccccc3)ccc2OCc2ccccc2)c1 [Compound Q012052, 2-[5-(BOC-amino)-2-hydroxybenzoylamino]ethyl 2-[2,5-bis-(benzyl-oxy)benzoylamino]ethylcarbamate]",> 100 µM,98 µM,19.9 µM,25.3 µM,83.1 µM,> 100 µM,> 100 µM,> 100 µM,> 100 µM,29.1 µM,24.9 µM,4.05 µM,> 100 µM,80.1 µM,15.6 µM,> 100 µM,> 100 µM,> 100 µM,17.1 µM,> 100 µM,"GI50 [21]: > 100 µM; GI50 [22]: 35.1 µM; Percent PAI-1 inhibition ([23]; at the concentration given, percent of activity of untreated PAI-1): 45; Conc. of compound required for PAI-1 inhibition ([23]; concentration giving the percent inhibition, 6 nM PAI-1, 8 nM uPA): 50 nM"
CCOC(=O)[C@H](Cc1ccccc1)NCc1cc(CN2CCN(c3ccccn3)CC2)c(O)c(OC)c1 [Compound Q012147T],> 100 µM,> 100 µM,94.1 µM,> 100 µM,24.8 µM,> 100 µM,37.5 µM,> 100 µM,83 µM,70.2 µM,49.8 µM,3.13 µM,61.9 µM,67.5 µM,67.3 µM,> 100 µM,18.7 µM,73.4 µM,88.8 µM,48.3 µM,GI50 [21]: > 100 µM; GI50 [22]: > 100 µM; Conc. of compound required for PAI-1 inhibition (result in words) ([23]; within the concentration range tested): No inhibition
